Key:
Format in all cases: in vivo
[1] = test system: Erysiphe graminis tritici (powdery mildew); assay: Greenhouse Test 1, foliar spray fungicide screen (POWD MDEW), host wheat; settings: disease control rating, 400 ppm (+++ at 100 ppm)
[2] = test system: Pyricularia oryzae (rice blast); settings: disease control rating, foliar spray, host rice; 400 ppm (+++ at 100 ppm)
[3] = test system: Puccinia recondita tritici (leaf rust); assay: Greenhouse Test 1, foliar spray fungicide screen (LEAF RUST), host wheat; settings: disease control rating, 400 ppm (+++ at 100 ppm)
[4] = test system: Botrytis cinerea (gray mold); assay: Greenhouse Test 1, foliar spray fungicide screen (GRAY MOLD), host grape berries; settings: disease control rating, 400 ppm (+++ at 100 ppm)
[5] = test system: Pseudoperonospora cubensis (downy mildew); assay: Greenhouse Test 1, foliar spray fungicide screen (DOWN MDEW), host squash; settings: disease control rating, 400 ppm (+++ at 100 ppm)
[6] = test system: Southern corn rootworm (Diabrotica undecimpuctata howardi Barber); assay: Mite/insect screen, soil treatment (CRW); settings: Diabrotica, percent mortality, soil treatment, read-out: CRW RESULTS %; for mortality at 12 ppm: CRW rate 12.00 ppm; for mortality at 24 ppm: CRW rate 24.00 ppm
How it was run: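 Five 2–3 instar larvae were placed on dry sandy soil with a presoaked corn seed after the soil had received 1 mL of compound solution and dried 6–12 h; cups were kept capped at 23°C. Mortality (%) and phytotoxicity were read after standard exposure. Formulation: acetone/alcohol with emulsifiers, water-diluted.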

[7] = test system: southern armyworm (Spodopetra eridania Cramer); assay: Mite/insect screen, sprayed squash leaves (SAW); settings: Spodoptera eridania, percent mortality, read-out: SAW RESULTS %; for mortality at 200 ppm: spray rate 200 ppm; for mortality at 400 ppm: spray rate 400 ppm
How it was run: (§1)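 Steps: formulate compound in acetone/alcohol 50:50 carrying emulsifiers; dilute with water; spray leaves until runoff on upper and lower surfaces; air-dry one hour; for armyworm, excise two […] leaves into a dish of larvae; after exposure, score mortality and plant injury.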

[8] = test system: Twospotted spider mites (Tetranychus urticae Koch); assay: Mite/insect screen, sprayed squash cotyledons (SM); settings: Tetranychus urticae, percent mortality, read-out: SM RESULTS %; for mortality at 200 ppm: spray rate 200 ppm; for mortality at 400 ppm: spray rate 400 ppm
How it was run: as §1

[9] = test system: melon aphids (Aphis gossypii Glover); assay: Mite/insect screen, sprayed squash cotyledons (MA); settings: Aphis gossypii, percent mortality, read-out: MA RESULTS %; for mortality at 200 ppm: spray rate 200 ppm; for mortality at 400 ppm: spray rate 400 ppm
How it was run: as §1

Compound | POWD MDEW [1] | RICE BLAST [2] | LEAF RUST [3] | GRAY MOLD [4] | DOWN MDEW [5] | mortality at 12 ppm [6] | mortality at 24 ppm [6] | mortality at 200 ppm [7] | mortality at 400 ppm [7] | mortality at 200 ppm [8] | mortality at 400 ppm [8] | mortality at 200 ppm [9] | mortality at 400 ppm [9]
CC(C)c1cccc(C(C)C)c1OCCOc1ncnc2ccccc12 [Example 181, 4-[2-[2,6-bis(i-propyl)phenoxy]ethoxy]quinazoline] | ++ (++ = 90-100% control at 400 ppm) | + (+ = 20-89% control at 400 ppm) | - (- = 0-19% control at 400 ppm) | - (- = 0-19% control at 400 ppm) | + (+ = 20-89% control at 400 ppm) | 0% | 0% | 0% | 0% | 0% | 40% | 60% | 50%
FC(F)(F)c1ccccc1CCOc1ncnc2ccccc12 [Example 47, 4-[2-[2-(trifluoromethyl)phenyl]ethoxy]quinazoline] | +++ (+++ = 90-100% control at 100 ppm) | +++ (+++ = 90-100% control at 100 ppm) | +++ (+++ = 90-100% control at 100 ppm) | - (- = 0-19% control at 400 ppm) | +++ (+++ = 90-100% control at 100 ppm) | – | 0% | – | 0% | – | 0% | – | 0%
Fc1cccc2c(NCCc3ccc(Cl)cc3)ncnc12 [Example 78, 8-fluoro-N-[2-(4-chlorophenyl)ethyl]-4-quinazolinamine] | + (+ = 20-89% control at 400 ppm) | +++ (+++ = 90-100% control at 100 ppm) | +++ (+++ = 90-100% control at 100 ppm) | - (- = 0-19% control at 400 ppm) | +++ (+++ = 90-100% control at 100 ppm) | 0% | 100% | 100% | 80% | 0% | 0% | 0% | 0%
COc1cccc(CCOc2ncnc3ccccc23)c1 [Example 13, 4-[2-(3-methoxyphenyl)ethoxy]quinazoline] | +++ (+++ = 90-100% control at 100 ppm) | +++ (+++ = 90-100% control at 100 ppm) | +++ (+++ = 90-100% control at 100 ppm) | - (- = 0-19% control at 400 ppm) | +++ (+++ = 90-100% control at 100 ppm) | – | 0% | – | 0% | – | 90% | – | 90%
CC(C)(C)c1ccc(CCNc2ncnc3c(F)cccc23)cc1 [Example 100, 8-fluoro-N-[2-[4-(t-butyl)phenyl]ethyl]-4-quinazolinamine] | +++ (+++ = 90-100% control at 100 ppm) | +++ (+++ = 90-100% control at 100 ppm) | +++ (+++ = 90-100% control at 100 ppm) | - (- = 0-19% control at 400 ppm) | +++ (+++ = 90-100% control at 100 ppm) | 0% | 100% | 80% | 0% | 80% | 0% | 80% | 0%
CC(C)(C)c1ccc(CCOc2nc(C(Cl)(Cl)Cl)nc3ccccc23)cc1 [Example 172, 2-(trichloromethyl)-4-[2-[4-(t-butyl)phenyl]ethoxy]quinazoline] | - (- = 0-19% control at 400 ppm) | - (- = 0-19% control at 400 ppm) | - (- = 0-19% control at 400 ppm) | - (- = 0-19% control at 400 ppm) | - (- = 0-19% control at 400 ppm) | 100% | 0% | 0% | 0% | 0% | 0% | 40% | 0%
CC(C)(C)c1ccc(CCOc2ncnc3c(Cl)cccc23)cc1 [Example 185, 8-chloro-4-[2-[4-(t-butyl)phenyl]ethoxy]quinazoline] | + (+ = 20-89% control at 400 ppm) | ++ (++ = 90-100% control at 400 ppm) | + (+ = 20-89% control at 400 ppm) | - (- = 0-19% control at 400 ppm) | ++ (++ = 90-100% control at 400 ppm) | 0% | 0% | 0% | 0% | 80% | 30% | 50% | 30%
c1ccc2cc(CCNc3nc(NCCc4ccc5ccccc5c4)c4ccccc4n3)ccc2c1 [Example 32, N,N'-bis[2-(2-naphthyl)ethyl]-2,4-quinazolinediamine] | - (- = 0-19% control at 400 ppm) | - (- = 0-19% control at 400 ppm) | - (- = 0-19% control at 400 ppm) | - (- = 0-19% control at 400 ppm) | + (+ = 20-89% control at 400 ppm) | 0% | 0% | 0% | 0% | 0% | 0% | 0% | 0%
CC(C)Cc1ccc(C(C)COc2ncnc3ccccc23)cc1 (stereo not drawn) [Example 167, 4-[2-[4-(2-methylpropyl)phenyl]propoxy]quinazoline] | + (+ = 20-89% control at 400 ppm) | +++ (+++ = 90-100% control at 100 ppm) | + (+ = 20-89% control at 400 ppm) | - (- = 0-19% control at 400 ppm) | - (- = 0-19% control at 400 ppm) | 0% | 0% | 0% | 0% | 90% | 80% | 90% | 80%
Oc1ccc(CCOc2ncnc3ccccc23)cc1 [Example 115, 4-[2-(4-hydroxyphenyl)ethoxy]quinazoline] | + (+ = 20-89% control at 400 ppm) | + (+ = 20-89% control at 400 ppm) | +++ (+++ = 90-100% control at 100 ppm) | - (- = 0-19% control at 400 ppm) | + (+ = 20-89% control at 400 ppm) | 0% | 0% | 0% | 0% | 0% | 0% | 0% | 0%
Fc1cccc2c(OCCc3cccc4ccccc34)ncnc12 [Example 141, 8-fluoro-4-[2-(1-naphthalenyl)ethoxy]quinazoline] | + (+ = 20-89% control at 400 ppm) | + (+ = 20-89% control at 400 ppm) | + (+ = 20-89% control at 400 ppm) | - (- = 0-19% control at 400 ppm) | + (+ = 20-89% control at 400 ppm) | – | 0% | – | 0% | – | 0% | – | 0%
Brc1ccc(CCOc2ncnc3ccccc23)cc1 [Example 22, 4-[2-(4-bromophenyl)ethoxy]quinazoline] | +++ (+++ = 90-100% control at 100 ppm) | +++ (+++ = 90-100% control at 100 ppm) | +++ (+++ = 90-100% control at 100 ppm) | - (- = 0-19% control at 400 ppm) | +++ (+++ = 90-100% control at 100 ppm) | – | 0% | – | 0% | – | 20% | – | 80%
CC(C)C(COc1ncnc2ccccc12)c1ccccc1 (stereo not drawn) [Example 165, 4-(3-methyl-2-phenylbutoxy)quinazoline] | ++ (++ = 90-100% control at 400 ppm) | ++ (++ = 90-100% control at 400 ppm) | ++ (++ = 90-100% control at 400 ppm) | - (- = 0-19% control at 400 ppm) | ++ (++ = 90-100% control at 400 ppm) | 0% | 0% | 0% | 0% | 0% | 0% | 50% | 80%

— patent EP0326329B1, “Quinazoline derivatives useful as insecticides” (Dow AgroSciences LLC, priority 1988, dated 1989)
